Patent publication US10487119B2, “Peptides for diagnosis and treatment of cancer” (National Taiwan University, priority 2013, dated 2019)
Where two headings read alike, the source gives them in different places. No end group written: not given here.

Columns and labels:
[1] = test system: neuroblastoma (Be2C) cells; experiment: Flow cytometry analysis of FITC-peptide binding to cells; assay type: cell-based
Text: (§1) The cultured cells, including nasopharyngeal carcinoma (NPC-TW01 and NPC-TW07), non-small cell lung cancer (H1299 and A549), neuroblastoma (Be2C), breast cancer (MB157) and immortalized embryonic renal epithelia (TEKID) ([…]) are subjected to flow cytometer (FACSCAN, BD Co., U.S.A.) after the FITC (Fluorescein isothiocyanate)-targeted peptide SEQ ID NO:1 treatment. Simultaneously, FITC-control peptide, FITC-biotin-targeted peptide SEQ ID NO: 1 (B-P) and FITC-biotin-control peptide (B-C-P) are used for flow cytometry comparison.

NPC-TW07 cells = experiment: as above; assay type: cell-based
Text: as §1

[2] = test system: breast cancer (MB157) cells; experiment: as above; assay type: cell-based
Text: as §1

[3] = test system: non-small cell lung cancer (A549) cells; experiment: as above; assay type: cell-based
Text: as §1

NPC-TW01 cells = experiment: as above; assay type: cell-based
Text: as §1

[4] = test system: non-small cell lung cancer (H1299) cells; experiment: as above; assay type: cell-based
Text: as §1

[5] = test system: immortalized embryonic renal cell line (293T); experiment: as above; assay type: cell-based, human; conditions: 293T immortalized renal cell line
Text: as §1

NPC cells = experiment: Addition of targeted peptide to NPC cell culture medium; assay type: cell-based; conditions: 1 mg/mL in NPC cells culture medium, sustained to 10 days
Text: Apparently, this finding indicate that the protein bound by the targeted peptide is not a receptor protein or the like thereof.

[6] = test system: hepatoma surgical specimens; experiment: Peptide histochemical localization in hepatoma surgical specimens; design: species or system human; conditions: for Prussian blue reaction product in tumor cells of hepatoma sections: formalin-fixed paraffin-embedded
Text: Peptide histochemical diagnosis of the present invention can be applied to hepatoma surgical specimens.

[7] = test system: hepatocellular carcinoma surgical specimens; experiment: Peptide histochemistry of hepatocellular carcinoma (HCC) surgical specimens; design: species or system human; conditions: for Prussian blue staining pattern in HCC surgical sections: 40 μg per mL, overnight; for Average percentage of stained tumor cell number 25-50% / Average percentage of stained tumor cell number <25% / Average percentage of stained tumor cell number >75%: N = 30, ten HPF (x 400)
Method: For hepatocellular carcinoma surgical specimens, after the deparaffinization of the paraffin-embedded sections and retrieval of targeted protein molecule, as part of the routine immunohistochemistry described as above-mentioned, the sections were incubated overnight with (a) The L-P-Fe3O4 (40 μg per mL); (b) SP-94-P-Fe3O4 (40 μg/mL); (c) one to one ratio of (a) and (b), then with routine Prussian blue reagents, followed by a counter staining for 2 min with nuclear fast red solution. The present invention has used this method to examine 30 hepatocellular carcinoma surgical specimens without difficulty. To count the positive stained cell number of the Prussian blue stained cells in each paraffin section, which are counted 10 high power fields (×400).

HepG2 tumor cells = experiment: Prussian blue staining of formalin-fixed, Triton X-100 treated HCC cell line; assay type: cell-based
Method: (§2) After the blood smears were fixed by formaldehyde, they were treated with or without Triton X-100 detergent and then stained with L-P-Fe3O4, SP-94-P-Fe3O4 or Control-P-Fe3O4 (C-P-Fe3O4) (40 μg/mL) and subjected to Prussian blue reaction with nuclear fast red contrast staining. Using the similar peptide histochemical procedure, the HepG2 and Huh-7 tumor cells were also stained. But in addition to the L-P-Fe3O4 and SP-94-P-Fe3O4, a ratio of 1:1 of L-P-Fe3O4: SP-94-P-Fe3O4 were mixed and used to stain the HepG2 and Huh-7 tumor cells.

[8] = test system: hepatoma (Hep G2) cell line; experiment: Prussian blue staining of hepatoma cell line; assay type: cell-based
Text: In addition to the targeted peptide SEQ ID NO: 1, the present invention also provides another targeted peptide SEQ ID NO: 2 for synthesizing the targeted peptide SEQ ID NO: 2-linked dextran-coated iron oxide nanoparticles.

[9] = test system: pancreatic cancer sections; experiment: Peptide histochemical localization in pancreatic surgical specimens; design: species or system human; conditions: formalin-fixed paraffin-embedded
Text: Peptide histochemical diagnosis of the present invention can be applied to pancreatic surgical specimens, ether the targeted peptide is SEQ ID NO: 1 or SEQ ID NO: 2.

[10] = test system: normal peripheral blood cells; experiment: Prussian blue staining of normal peripheral blood smears; assay type: cell-based, human
Text: The present invention prepared L-peptide-linked dextran-coated iron oxide nanoparticles, such as, L-P-Fe3O4, SP-94-P-Fe3O4, PC5-52-P-Fe3O4 and control-peptide-Fe3O4 nanoparticles (C-P-Fe3O4). The dextran coated-Fe3O4 nanoparticles (Dex-Fe3O4) were purchased from MAGQU Company. This company conjugates L-peptide, SP-94-peptide and PC5-52-peptide, separately, to the Dex-Fe3O4 nanoparticles. Each Dex-Fe3O4 can be linked with more than 10 peptide molecules. For localization of the peptide targeted protein in HepG2 and Huh-7 cell lines, the present invention first have to check whether our peptide can also bind to the mononuclear cells in the human peripheral blood. The mononuclear cells were obtained from the normal personal blood using Histopaque-1077 solution (SIGMA, St, Louis, Mo. U.S.A).
as §2

[11] = test system: breast cancer surgical specimens; experiment: Peptide histochemical localization in breast cancer surgical specimens; design: species or system human
Method: (§3) The sections are incubated overnight at 4° C. with the P-Dex-Fe3O4 nanoparticles, and washed with PBS, then are incubated for 15-30 min with routine Prussian blue reagent (containing 2% potassium ferricyanide (Sigma-aldrich.com. St Louis Mo., U.S.A.) and 0.5 N HCl in dH2O=1:1), followed by counterstaining for 5 min with nuclear fast red solution, washed with water, and mounted with 50% glycerol directly or with balsam after alcohol dehydration.

NPC biopsy specimens = experiment: Peptide histochemical localization in formalin-fixed paraffin-embedded NPC biopsy specimens; design: species or system human; conditions: overnight at 4° C.
Method: as §3

Huh-7 tumor cells = experiment: Prussian blue staining of formalin-fixed, Triton X-100 treated HCC cell line; assay type: cell-based
Method: as §2

[12] = test system: breast cancer cells (MDA-MB-231); experiment: Prussian blue staining of breast cancer cell line; assay type: cell-based
NPC cells (NPC-TW01) = experiment: Prussian blue staining of cultured NPC cells incubated with peptide-linked iron oxide nanoparticles; assay type: cell-based; conditions: 4° C. for 1.0 hr and 37° C. for 4 hr
Text: The dextran coated-Fe3O4 is linked with the targeted peptide SEQ ID NO:1 or the FITC-targeted peptide SEQ ID NO:1 by the MagQu Company. Dextran is used as the hydrophilic surfactant layer. The iron oxide fluid with the desired concentration is available by diluting the highly concentrated iron oxide fluid with a pH 7.4 phosphate buffered saline (PBS) solution. […] Cells are washed in a 2% fetal bovine serum in PBS. After fixation, the binding ability between the targeted peptide SEQ ID NO: 1 and tumor cells can be observed by Prussian blue reagent; each iron oxide nanoparticle is bound by approximately above 10 targeted peptides.

[13] = test system: pancreatic cancer (Pan 1) cell line; experiment: Prussian blue staining of pancreatic cancer cell line; assay type: cell-based
Method: (§4) Blood monocytes, hepatoma (Hep G2) and pancreatic cancer (Pan 1) cell lines are incubated with P-Dex-Fe3O4 nanoparticle for 1.0 hr and 37° C. for 4 hr, and then are stained with Prussian blue reagent.

blood monocytes = experiment: Prussian blue staining of blood monocytes; assay type: cell-based; conditions: 1.0 hr and 37° C. for 4 hr
Method: as §4

[14] = test system: hepatoma and pancreatic cancer cells; experiment: FITC-peptide binding to hepatoma and pancreatic cancer cells; assay type: cell-based
HepG2 xenografts = experiment: Peptide targeted chemotherapy of mice bearing HepG2 xenografts; assay type: in vivo; conditions: SCID mice bearing hepatoma xenograft
Method: For the peptide targeted chemotherapy, 40 male SCID mice were transplanted with […] HepG2 cells into their right thigh subcutaneously; after 10 days, solid xenografts measuring approximately 0.8 cm in diameter were found in each mouse, then they were divided into four groups (each group included 10 mice). The first group was injected with PBS; the second and third groups were injected either with L-P-L-D or PC5-52-P-L-D, separately. Each dose contained 2 mg doxorubicin/kg of mouse body weight. The fourth group mice were injected with L-P-L-D (1 mg doxorubicin/kg) mixed with PC5-52-P-L-D (1 mg doxorubicin/kg). All doses were injected through the tail vein, once per week, for a total of 4 injections, and all animals were sacrificed at day 35. The body weight and tumor size were measured weekly. All animals were examined by routine autopsy. The xenograft tumors and all visceral organs were examined by histopathological sections after stained by hematoxylin and eosin. The pegylated peptide was linked to L-D in our laboratory according to our previously published methods (Cancer Res. 64:8002-8008, Nov. 1, 2004). For comparison, another animal experiment was performed. In the later experiment, the present invention used NSG (NOD-SCID immunodeficiency gamma strain animals); the experiments were totally similar to the NOD SCID mice case. […]

FITC-targeted peptide SEQ ID NO: 1: fluorescein isothiocyanate-labelled targeted peptide SEQ ID NO:1 (RLLDTNRPLLPY; also: FITC label)
binding to Be2C cells (flow cytometry) [1]: a clear binding peak | binding to NPC-TW07 cells (flow cytometry histogram) (NPC-TW07 cells): a clear peak is found in the histogram | binding to MB157 cells (flow cytometry) [2]: a clear binding peak | binding to A549 cells (flow cytometry) [3]: a clear binding peak | binding to NPC-TW01 cells (flow cytometry) (NPC-TW01 cells): a clear binding peak | binding to H1299 cells (flow cytometry) [4]: a clear binding peak | binding to 293T cells (flow cytometry) [5]: without showing any binding phenomenon

targeted peptide SEQ ID NO: 1: 12 amino acid targeted peptide (L-peptide) obtained from nasopharyngeal carcinoma (RLLDTNRPLLPY)
change of tumor cell morphology and behavior (NPC cells): no any specific change of tumor cell morphology and behavior

SP-94-P-Fe3O4 (SFSIIHTPILPL)
Prussian blue reaction product in tumor cells of hepatoma sections [6]: the Prussian blue products can also be observed in the tumor cells | Prussian blue staining pattern in HCC surgical sections [7]: the staining pattern was the same as L-P-Fe3O4 staining | Average percentage of stained tumor cell number 25-50% [7]: 9 cases | Average percentage of stained tumor cell number <25% [7]: 5 cases | Average percentage of stained tumor cell number >75% [7]: 16 cases | Prussian blue stained HepG2 tumor cells (HepG2 tumor cells): the stained cell number was lower than that of the L-P-Fe3O4 treated case | Prussian blue reaction product in hepatoma cell line [8]: blue reaction product | Prussian blue reaction product in pancreatic cancer sections [9]: all show the reaction products

P-Dex-Fe3O4 (RLLDTNRPLLPY)
Prussian blue reaction product in fixed blood smears treated with Triton X-100 ([10]; with Triton X-100): the mononuclear cells but not red blood cells showed blue reaction product in their cytoplasm | Prussian blue reaction product in blood smears fixed in formalin ([10]; without Triton X-100): no reaction product was seen | Prussian blue reaction product in tumor cells of hepatoma sections [6]: show in single infiltrating tumor cells | Prussian blue reaction product in normal cells of hepatoma sections ([6]; normal cells compressed by tumor cells): the blue reaction products do not show in the normal cells | Prussian blue reaction product in tumor cells from breast cancer metastatic axillary lymph nodes [11]: reveal blue reaction product | Prussian blue reaction product in stromal regions in tumor nests ([11]; breast cancer sections): no blue reaction product | Prussian blue reaction product in breast cancer sections ([11]; formalin-fixed paraffin-embedded, specimens more than 1 cm in diameter): show the Prussian blue reaction products | Prussian blue reaction product in tumor cells of NPC biopsy sections (NPC biopsy specimens): the Prussian blue reaction product is easily identified in the tumor cells of stained sections | Prussian blue staining pattern in HCC surgical sections [7]: the Prussian blue reaction product was easily identified in the tumor cells in stained sections | Average percentage of stained tumor cell number 25-50% [7]: 7 cases | Average percentage of stained tumor cell number <25% [7]: 6 cases | Average percentage of stained tumor cell number >75% [7]: 17 cases | Prussian blue stained Huh-7 tumor cells (Huh-7 tumor cells): stained cell number is somewhat a little more than that of SP-94-P-Fe3O4 stained case | Prussian blue stained HepG2 tumor cells (HepG2 tumor cells): many tumor cells were stained by a blue reaction product | Prussian blue reaction product in breast cancer cells [12]: the reaction products appear in most of the cytoplasm of breast cancer cells | Prussian blue reaction product in NPC cells (NPC cells (NPC-TW01)): the reaction products are seen in the cytoplasm of a majority of the tumor cells | Prussian blue reaction product in hepatoma cell line [8]: show blue reaction products | Prussian blue reaction product in hepatoma cell line ([8]; listed as targeted peptide SEQ ID NO:1-linked dextran-coated iron oxide nanoparticles): blue reaction product | Prussian blue reaction product in pancreatic cancer cell line [13]: show blue reaction products | Prussian blue reaction product in blood monocytes (blood monocytes): no reaction product | Prussian blue reaction product in pancreatic cancer sections [9]: all show the reaction products

FITC-targeted peptide SEQ ID NO: 2: FITC-labelled targeted peptide SEQ ID NO: 2 (SFSIIHTPILPL; also: FITC label)
binding to hepatoma and pancreatic cancer cells [14]: can be used to bind to hepatoma and pancreatic cancer cells

control peptide (RLLDTNRPLGGG; also: FITC or biotin label)
adverse event / visceral organs (HepG2 xenografts): the visceral organs revealed marked apoptotic change | tumor growth / xenograft size (HepG2 xenografts): the xenograft size was also decreased

FITC-linked control peptide SEQ ID NO: 3: FITC-labelled control peptide (RLLDTNRPLGGG; also: FITC label) [reference compound]
binding to NPC-TW07 cells (flow cytometry histogram) (NPC-TW07 cells): very weak binding activity
